Reference: ChEMBL document CHEMBL4312001, “Combined therapy with Benznidazole and repurposed drugs Clofazimine and Benidipine for chronic Chagas disease” (Eur J Med Chem, 2019)
Activity calls are given as the source filed them. No cut-off for these calls is given here.

Assays:
[1] = test system: Trypanosoma cruzi; assay: (§1) Antitrypanosomal activity against Trypanosoma cruzi K98 bloodstream form infected in C3H/HeNk mouse assessed as change in QRS morphology at 15 mg/kg/day, po administered via gavage for 30 consecutive days starting from 90 days post infection and measured at 120 days post infection in presence of benznidazole by electrocardiographic analysis (reference value: 25 %); format: functional
[2] = Toxicity in C3H/HeNk mouse infected with Trypanosoma cruzi K98 bloodstream form assessed as body weight gain at 15 mg/kg/day, po administered via gavage for 30 consecutive days starting from 90 days post infection measured up to 120 days post infection in presence of benznidazole; format: organism-based; conditions: in vivo
[3] = test system: Trypanosoma cruzi; assay: as §1, with “effect on PR interval” for “change in QRS morphology”, “120 to 170” for “120”, “analysis” for “analysis (reference value: 25 %)”; format: functional, organism-based
[4] = test system: Trypanosoma cruzi; assay: as §1, with “effect on heart rate duration” for “change in QRS morphology”, “120 to 170” for “120”, “analysis” for “analysis (reference value: 25 %)”; format: functional, organism-based
[5] = test system: Trypanosoma cruzi; assay: as §1, with “effect on heart rate” for “change in QRS morphology”, “120 to 170” for “120”, “analysis” for “analysis (reference value: 25 %)”; format: functional, organism-based
[6] = test system: Trypanosoma cruzi; assay: as §1, with “reduction” for “change”, “parasite burden in skeletal muscle” for “QRS morphology”, “180” for “120”, “qRT-PCR” for “electrocardiographic”, “analysis” for “analysis (reference value: 25 %)”; format: functional, organism-based
[7] = test system: Trypanosoma cruzi; assay: Antitrypanosomal activity against Trypanosoma cruzi K98 bloodstream form infected in C3H/HeNk mouse assessed as adipocytes replacement in skeletal muscle by measuring number of adipocyte at 15 mg/kg/day, po administered via gavage for 30 consecutive days starting from 90 days post infection and measured at 180 days post infection in presence of benznidazole by hematoxylin and eosin staining based …; format: functional
[8] = test system: Trypanosoma cruzi; assay: as §1, with “reduction” for “change”, “cardiac tissue inflammation” for “QRS morphology”, “180” for “120”, “hematoxylin and eosin staining based assay” for “electrocardiographic analysis (reference value: 25 %)”; format: functional, organism-based
[9] = test system: Trypanosoma cruzi; assay: as §1, with “effect on QT interval” for “change in QRS morphology”, “120 to 170” for “120”, “analysis” for “analysis (reference value: 25 %)”; format: functional, organism-based
[10] = test system: Trypanosoma cruzi; assay: as §1, with “reduction” for “change”, “parasite burden in blood” for “QRS morphology”, “180” for “120”, “qRT-PCR” for “electrocardiographic”, “analysis” for “analysis (reference value: 25 %)”; format: functional, organism-based
[11] = test system: Trypanosoma cruzi; assay: as §1, with “170” for “120”; format: functional
[12] = test system: Trypanosoma cruzi; assay: as §1, with “reduction” for “change”, “parasite burden in cardiac muscle” for “QRS morphology”, “180” for “120”, “qRT-PCR” for “electrocardiographic”, “analysis” for “analysis (reference value: 25 %)”; format: functional, organism-based
[13] = test system: Trypanosoma cruzi; assay: as §1, with “effect on RR interval” for “change in QRS morphology”, “120 to 170” for “120”, “analysis” for “analysis (reference value: 25 %)”; format: functional, organism-based
[14] = test system: Vero; assay: Cytotoxicity against African green monkey Vero cells at 0.5 to 20 uM after 72 hrs by propidium iodide staining based flow cytometric analysis; format: cell-based; conditions: chlorocebus sabaeus
[15] = test system: Trypanosoma cruzi; assay: (§2) Antitrypanosomal activity against Trypanosoma cruzi K98 bloodstream form infected in C3H/HeNk mouse assessed as effect on RR interval at 30 to 75 mg/kg/day, po administered via gavage for 30 consecutive days starting from 90 days post infection and measured at 120 to 170 days post infection by electrocardiographic analysis; format: functional, organism-based
[16] = test system: Trypanosoma cruzi; assay: as §1, with “75” for “15”, “infection” for “infection in presence of benznidazole”; format: functional
[17] = Toxicity in C3H/HeNk mouse infected with Trypanosoma cruzi K98 bloodstream form assessed as decrease in body weight at 30 mg/kg/day, po administered via gavage for 30 consecutive days starting from 90 days post infection measured at 150 days post infection; format: organism-based; conditions: in vivo
[18] = test system: Trypanosoma cruzi; assay: as §2, with “reduction in parasite burden in blood” for “effect on RR interval”, “180” for “120 to 170”, “qRT-PCR” for “electrocardiographic”; format: functional, organism-based
[19] = Toxicity in C3H/HeNk mouse infected with Trypanosoma cruzi K98 bloodstream form assessed as decrease in body weight at 30 mg/kg/day, po administered via gavage for 30 consecutive days starting from 90 days post infection measured at 150 days post infection in presence of benznidazole; format: organism-based; conditions: in vivo
[20] = Toxicity in C3H/HeNk mouse infected with Trypanosoma cruzi K98 bloodstream form assessed as body weight gain at 75 mg/kg/day, po administered via gavage for 30 consecutive days starting from 90 days post infection measured up to 120 days post infection; format: organism-based; conditions: in vivo
[21] = test system: Trypanosoma cruzi; assay: Antitrypanosomal activity against Trypanosoma cruzi K98 bloodstream form infected in C3H/HeNk mouse assessed as reduction in skeletal tissue inflammation at 75 mg/kg/day, po administered via gavage for 30 consecutive days starting from 90 days post infection and measured at 180 days post infection by hematoxylin and eosin staining based assay; format: functional, organism-based
[22] = test system: Trypanosoma cruzi; assay: as §1, with “30” for “15”, “infection” for “infection in presence of benznidazole”; format: functional
[23] = test system: Trypanosoma cruzi; assay: as §2, with “QT” for “RR”; format: functional, organism-based
[24] = test system: Trypanosoma cruzi; assay: as §2, with “heart rate duration” for “RR interval”; format: functional, organism-based
[25] = Toxicity in C3H/HeNk mouse infected with Trypanosoma cruzi K98 bloodstream form assessed as decrease in body weight at 75 mg/kg/day, po administered via gavage for 30 consecutive days starting from 90 days post infection measured at 150 days post infection; format: organism-based; conditions: in vivo
[26] = test system: Trypanosoma cruzi; assay: (§3) Antitrypanosomal activity against Trypanosoma cruzi K98 bloodstream form infected in C3H/HeNk mouse assessed as reduction in parasite burden in skeletal muscle at 30 to 75 mg/kg/day, po administered via gavage for 30 consecutive days starting from 90 days post infection and measured at 180 days post infection by qRT-PCR analysis; format: functional, organism-based
[27] = test system: Trypanosoma cruzi; assay: as §2, with “heart rate” for “RR interval”; format: functional, organism-based
[28] = test system: Trypanosoma cruzi; assay: as §2, with “PR” for “RR”; format: functional, organism-based
[29] = test system: Trypanosoma cruzi; assay: as §1, with “30” for “15”, “170” for “120”, “infection” for “infection in presence of benznidazole”; format: functional
[30] = test system: Trypanosoma cruzi; assay: as §1, with “as” for “as change in”, “75” for “15”, “170” for “120”, “infection” for “infection in presence of benznidazole”; format: functional
[31] = test system: Trypanosoma cruzi; assay: as §3, with “cardiac” for “skeletal”; format: functional, organism-based
[32] = Toxicity in C3H/HeNk mouse infected with Trypanosoma cruzi K98 bloodstream form assessed as decrease in body weight at 15 mg/kg/day, po administered via gavage for 30 consecutive days starting from 90 days post infection measured at 150 days post infection in presence of benznidazole; format: organism-based; conditions: in vivo
[33] = Toxicity in C3H/HeNk mouse infected with Trypanosoma cruzi K98 bloodstream form assessed as body weight gain at 30 mg/kg/day, po administered via gavage for 30 consecutive days starting from 90 days post infection measured up to 120 days post infection; format: organism-based; conditions: in vivo
[34] = test system: Trypanosoma cruzi; assay: (§4) Antitrypanosomal activity against Trypanosoma cruzi K98 bloodstream form infected in C3H/HeNk mouse assessed as reduction in cardiac tissue inflammation at 30 to 75 mg/kg/day, po administered via gavage for 30 consecutive days starting from 90 days post infection and measured at 180 days post infection by hematoxylin and eosin staining based assay; format: functional, organism-based
[35] = test system: Trypanosoma cruzi; assay: (§5) Antitrypanosomal activity against Trypanosoma cruzi K98 bloodstream form infected in C3H/HeNk mouse assessed as effect on QT interval at 30 mg/kg/day, po administered via gavage for 30 consecutive days starting from 90 days post infection and measured at 120 to 170 days post infection in presence of benznidazole by electrocardiographic analysis; format: functional, organism-based
[36] = test system: Trypanosoma cruzi; assay: as §3, with “at 30 mg/kg/day, po” for “at 30 to 75 mg/kg/day, po”, “post infection in presence of benznidazole by qRT-PCR” for “post infection by qRT-PCR”; format: functional, organism-based
[37] = test system: Trypanosoma cruzi; assay: Antitrypanosomal activity against Trypanosoma cruzi K98 bloodstream form infected in C3H/HeNk mouse assessed as adipocytes replacement in skeletal muscle by measuring number of adipocyte at 30 mg/kg/day, po administered via gavage for 30 consecutive days starting from 90 days post infection and measured at 180 days post infection in presence of benznidazole by hematoxylin and eosin staining based …; format: functional
[38] = test system: Trypanosoma cruzi; assay: as §5, with “heart rate duration” for “QT interval”; format: functional, organism-based
[39] = test system: Trypanosoma cruzi; assay: as §5, with “RR” for “QT”; format: functional, organism-based
[40] = test system: Trypanosoma cruzi; assay: as §5, with “PR” for “QT”; format: functional, organism-based
[41] = test system: Trypanosoma cruzi; assay: as §4, with “at 30 mg/kg/day, po” for “at 30 to 75 mg/kg/day, po”, “post infection in presence of benznidazole by hematoxylin” for “post infection by hematoxylin”; format: functional, organism-based
[42] = test system: Trypanosoma cruzi; assay: as §1, with “30” for “15”, “170” for “120”; format: functional
[43] = test system: Trypanosoma cruzi; assay: as §1, with “30” for “15”; format: functional
[44] = Toxicity in C3H/HeNk mouse infected with Trypanosoma cruzi K98 bloodstream form assessed as body weight gain at 30 mg/kg/day, po administered via gavage for 30 consecutive days starting from 90 days post infection measured up to 120 days post infection in presence of benznidazole; format: organism-based; conditions: in vivo
[45] = test system: Trypanosoma cruzi; assay: (§6) Antitrypanosomal activity against Trypanosoma cruzi K98 bloodstream form infected in C3H/HeNk mouse assessed as reduction in parasite burden in blood at 30 mg/kg/day, po administered via gavage for 30 consecutive days starting from 90 days post infection and measured at 180 days post infection in presence of benznidazole by qRT-PCR analysis; format: functional, organism-based
[46] = test system: Trypanosoma cruzi; assay: as §6, with “in cardiac muscle” for “in blood”; format: functional, organism-based
[47] = test system: Trypanosoma cruzi; assay: as §5, with “heart rate” for “QT interval”; format: functional, organism-based

COC(=O)C1=C(C)NC(C)=C(C(=O)O[C@@H]2CCCN(Cc3ccccc3)C2)[C@@H]1c1cccc([N+](=O)[O-])c1.Cl
Activity [1]: 50% | Activity [2]: Non-Toxic | Activity [3]: inactive | Activity [4]: inactive | Activity [5]: inactive | Activity [6]: Active | Activity [7]: 1 - 3 | Activity [8]: Active | Activity [9]: inactive | Activity [10]: Active | Activity [11]: 50% | Activity [12]: inactive | Activity [13]: inactive | Activity [14]: Non-Toxic

O=C(Cn1ccnc1[N+](=O)[O-])NCc1ccccc1 [BENZNIDAZOLE]
Activity [15]: inactive | Activity [16]: 0% | Activity [17]: Non-Toxic | Activity [18]: Active | Activity [19]: Non-Toxic | Activity [20]: Non-Toxic | Activity [21]: inactive | Activity [22]: 0% | Activity [23]: inactive | Activity [24]: inactive | Activity [25]: Toxic | Activity [26]: Active | Activity [27]: inactive | Activity [28]: inactive | Activity [29]: 0% | Activity [30]: 80% | Activity [31]: Active | Activity [32]: Non-Toxic | Activity [33]: Non-Toxic | Activity [34]: Active | Activity [14]: Non-Toxic

CC(C)/N=c1\cc2n(-c3ccc(Cl)cc3)c3ccccc3nc-2cc1Nc1ccc(Cl)cc1 [CLOFAZIMINE]
Activity [35]: inactive | Activity [36]: Active | Activity [37]: 1 - 3 | Activity [38]: inactive | Activity [39]: inactive | Activity [40]: inactive | Activity [41]: inactive | Activity [42]: 0% | Activity [43]: 0% | Activity [44]: Non-Toxic | Activity [45]: Active | Activity [46]: inactive | Activity [47]: inactive | Activity [14]: Non-Toxic
